Test results published in BindingDB's records for patent WO2025064535 (Deep Apple Therapeutics, 2025).

Each molecule was assayed against T1, Mas-related G-protein coupled receptor member X2 (Homo sapiens, UniProt Q96LB1) (assay: MRGPRX2 Activity Assay).
T1 sequence (Q96LB1 whole entry): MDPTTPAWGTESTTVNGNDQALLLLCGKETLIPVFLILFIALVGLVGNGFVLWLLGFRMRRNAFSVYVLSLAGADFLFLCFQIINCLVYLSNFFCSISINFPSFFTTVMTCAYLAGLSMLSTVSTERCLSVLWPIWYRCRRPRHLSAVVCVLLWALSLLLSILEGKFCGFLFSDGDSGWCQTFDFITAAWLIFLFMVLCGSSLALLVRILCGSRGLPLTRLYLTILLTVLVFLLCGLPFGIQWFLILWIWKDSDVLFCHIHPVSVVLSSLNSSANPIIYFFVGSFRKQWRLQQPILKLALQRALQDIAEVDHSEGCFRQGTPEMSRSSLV
Experimental: FlpIn TRex-MRGPRX2-HEK293 cells (herein TRex-MRPGRX2-HEK) stably transfected to express human MRGPRX2 were maintained at 37 °C with 5% CO2 and grown in DMEM supplemented with 10% FBS, 1% L-Glutamate, 1% penicillin/streptomycin, 100ug/mL Hygromycin B, and 15 µg/mL Blasticidin. GOI (MRGPRX2) expression was induced with 100ng/mL of Doxycycline 18-24 hours prior to experiment, in flask. On the day of experiment, cells were lifted with TripLE Express and seeded in 384-well white walled opaque bottomed, assay plates, at 8,000 cells per well in 5 µL freshly made assay buffer (HBSS, 20 mM HEPES, 0.1% BSA and 10 mM LiCl). Compounds solubilized in 100% DMSO at 30 mM were serially diluted (1:4) first in 100% DMSO, and an intermediate plate of assay buffer was used to establish a final top concentration of 30 µM (in assay plate). Final DMSO concentration was kept constant at 1% across assay plates. Cortistatin-14, at 30 mM stock concentration was solubilized in HBSS + 0.1% BSA, stored at -20°C in 5 µL aliquots and discarded after one freeze-thaw cycle. […] Antagonist equilibrium was established with 30 minutes preincubation, followed by no wash, direct addition, and stimulation of agonist for 1 hour at 37 °C / 5% CO2. IP-1 standards and HTRF detection reagents were added according to the IP-one Gq kit protocol purchased from CisBio (part number 62IPAPEJ). The plate was read on an EnVision XCite plate reader. The HTRF ratio was then calculated from raw data (channel1/channel2 ×10,000) and analyzed using either GraphPad Prism or a custom Python script to calculate IC50 using Log[Antagonist] vs. response (4 parameter) nonlinear regression.

Row | Compound | IC50 [nM]
1 | C[C@@H](C(=O)Nc1nc2cc3c(cc2s1)OC(F)(F)O3)N1CCO[C@H](c2ccc(=O)[nH]c2)C1 [WO2025064535, Compound 4] | > 30000
2 | C[C@@H](C(=O)Nc1nc2cc3c(cc2s1)OC(F)(F)O3)N1CCC[C@@H](CO)C1 [WO2025064535, Compound 7] | 1130
3 | C[C@@H](C(=O)Nc1cc2cc3c(cc2s1)OC(F)(F)O3)N1CCC(F)(F)[C@@H](c2c[nH]c(=O)c([C@H](N)C(F)(F)F)c2)C1 [WO2025064535, Compound 14] | 12800
4 | C[C@@H](C(=O)Nc1nc2cc3c(cc2s1)OC(F)(F)O3)N1CCC(F)(F)[C@@H](c2c[nH]c(=O)c([C@H](N)C(F)F)c2)C1 [WO2025064535, Compound 21] | 18
5 | C[C@@H](C(=O)Nc1nc2cc3c(cc2s1)OC(F)(F)O3)N1CCC(F)(F)[C@H](c2c[nH]c(=O)c([C@H](N)C(F)F)c2)C1 [WO2025064535, Compound 23] | 9010
6 | C[C@@H](C(=O)Nc1nc2cc3c(cc2s1)OC(F)(F)O3)N1CCC(F)(F)[C@H](c2c[nH]c(=O)c([C@@H](N)C(F)F)c2)C1 [WO2025064535, Compound 24] | > 30000
7 | C[C@@H](C(=O)Nc1nc2cc3c(cc2s1)CCC3)N1CCC(F)(F)[C@@H](c2ccc(=O)[nH]c2)C1 [WO2025064535, Compound 27] | 292
8 | C[C@@H](C(=O)Nc1nc2cc3c(cc2s1)OC(F)(F)O3)N1CCC(F)(F)[C@@H](c2ccc(=O)[nH]c2)C1 [WO2025064535, Compound 31] | > 30000
9 | C[C@@H](C(=O)Nc1nc2cc3c(cc2s1)OC(F)(F)O3)N1CC[C@@H](F)[C@@H](c2cc[n+]([O-])cc2)C1 [WO2025064535, Compound 36] | > 30000
10 | C[C@@H](C(=O)Nc1nc2cc3c(cc2s1)OC(F)(F)O3)N1CC[C@@H](F)[C@H](c2cc[n+]([O-])cc2)C1 [WO2025064535, Compound 37] | > 30000
11 | C[C@@H](C(=O)Nc1nc2cc3c(cc2s1)OCCO3)N1CCC(F)(F)[C@@H](c2c[nH]c(=O)cn2)C1 [WO2025064535, Compound 40] | 770
12 | C[C@@H](C(=O)Nc1nc2cc3c(cc2s1)OC(F)(F)O3)N1CCC(F)(F)[C@@H](c2c[nH]c(=O)c([C@@H](O)CO)c2)C1 [WO2025064535, Compound 42] | > 30000
13 | C[C@@H](C(=O)Nc1nc2cc3c(cc2s1)OC(F)(F)O3)N1CCC(F)(F)[C@H](c2c[nH]c(=O)c([C@H](O)CO)c2)C1 [WO2025064535, Compound 45] | 22
14 | C[C@@H](C(=O)Nc1nc2cc3c(cc2s1)OC(F)(F)O3)N1CCC(F)(F)[C@@H](c2cc[n+]([O-])c([C@@H](O)CO)c2)C1 [WO2025064535, Compound 51] | > 30000
15 | C[C@@H](C(=O)Nc1nc2cc3c(cc2s1)OC(F)(F)O3)N1CCC(F)(F)[C@H](c2cc[n+]([O-])c([C@@H](O)CO)c2)C1 [WO2025064535, Compound 52] | > 30000
16 | C[C@@H](C(=O)Nc1nc2cc3c(cc2s1)OC(F)(F)O3)N1CCC(F)(F)[C@@H](n2ccc(=O)[nH]c2=O)C1 [WO2025064535, Compound 62] | > 30000
17 | C[C@@H](C(=O)Nc1nc2cc3c(cc2s1)OC(F)(F)O3)N1CCC(F)(F)[C@H](n2ccc(=O)[nH]c2=O)C1 [WO2025064535, Compound 63] | 635
18 | C[C@@H](C(=O)Nc1nc2cc3c(cc2s1)OC(F)(F)O3)N1CCC(F)(F)[C@@H](c2cc[n+]([O-])c(CN)c2)C1 [WO2025064535, Compound 64] | > 30000
19 | C[C@@H](C(=O)Nc1nc2cc3c(cc2s1)OC(F)(F)O3)N1CCC(F)(F)[C@H](c2cc[n+]([O-])c(CN)c2)C1 [WO2025064535, Compound 65] | 32
20 | C[C@@H](C(=O)Nc1nc2cc3c(cc2s1)OC(F)(F)O3)N1CCC(F)(F)[C@H](c2c[nH]c(=O)c(CN3CCOCC3)c2)C1 [WO2025064535, Compound 67] | 303
21 | C[C@@H](C(=O)Nc1nc2cc3c(cc2s1)OCO3)N1CCC(F)(F)[C@@H](c2cc[n+]([O-])cc2)C1 [WO2025064535, Compound 80] | 196
22 | C[C@H](C(=O)Nc1nc2cc3c(cc2s1)OC(F)(F)O3)N1CCC(F)(F)[C@@H](c2c[nH]c(=O)c(CN)c2)C1 [WO2025064535, Compound 84] | 1160
23 | CNCc1cc([C@H]2CN([C@@H](C)C(=O)Nc3nc4cc5c(cc4s3)OC(F)(F)O5)CCC2(F)F)cc[n+]1[O-] [WO2025064535, Compound 101] | 3430
24 | C[C@@H](C(=O)Nc1nc2cc3c(cc2s1)CCC3)N1CCC(F)(F)[C@@H](c2c[nH]c(=O)c(CO)c2)C1 [WO2025064535, Compound 106] | > 30000

Further lines, results first:

Row | IC50 [nM] | Compound
25 | 49 | C[C@@H](C(=O)Nc1nc2cc3c(cc2s1)OC(F)(F)O3)N1CCO[C@@H](c2ccc(=O)[nH]c2)C1 [WO2025064535, Compound 3]
26 | 85 | C[C@@H](C(=O)Nc1nc2cc3c(cc2s1)CCC3)N1CCC(F)(F)CC1 [WO2025064535, Compound 18]
27 | 17 | C[C@@H](C(=O)Nc1nc2cc3c(cc2s1)OC(F)(F)O3)N1CCC(F)(F)[C@@H](c2c[nH]c(=O)c([C@@H](N)C(F)F)c2)C1 [WO2025064535, Compound 22]
28 | 1070 | C[C@@H](C(=O)Nc1nc2cc3c(cc2s1)OCCO3)N1CCC(F)(F)[C@H](c2ccc(=O)[nH]c2)C1 [WO2025064535, Compound 30]
29 | 1020 | C[C@@H](C(=O)Nc1nc2cc3c(cc2s1)OC(F)(F)O3)N1CCC(F)(F)[C@H](c2c[nH]c(=O)cn2)C1 [WO2025064535, Compound 35]
30 | 223 | C[C@@H](C(=O)Nc1nc2cc3c(cc2s1)OC(F)(F)O3)N1CC[C@H](F)[C@H](c2cc[n+]([O-])cc2)C1 [WO2025064535, Compound 39]
31 | > 30000 | C[C@@H](C(=O)Nc1nc2cc3c(cc2s1)OC(F)(F)O3)N1CCC(F)(F)[C@@H](c2c[nH]c(=O)c([C@H](O)CO)c2)C1 [WO2025064535, Compound 44]
32 | 222 | C[C@@H](C(=O)Nc1nc2cc3c(cc2s1)OC(F)(F)O3)N1CCC[C@H](c2cc[n+]([O-])cc2)C1 [WO2025064535, Compound 50]
33 | 30 | C[C@@H](C(=O)Nc1nc2cc3c(cc2s1)OC(F)(F)O3)N1CCC(F)(F)[C@@H](c2cc[n+]([O-])c([C@H](O)CO)c2)C1 [WO2025064535, Compound 53]
34 | > 30000 | C[C@@H](C(=O)Nc1nc2cc3c(cc2s1)OC(F)(F)O3)N1CCC(F)(F)[C@@H](c2c[nH]c(=O)c(CN3CCOCC3)c2)C1 [WO2025064535, Compound 66]
35 | > 30000 | C[C@@H](C(=O)Nc1nc2cc3c(cc2s1)OC(F)(F)O3)N1CCC(F)(F)[C@@H](c2c[nH]c(=O)c(CN3CCC(F)(F)CC3)c2)C1 [WO2025064535, Compound 68]
36 | 169 | C[C@@H](C(=O)Nc1nc2cc3c(cc2s1)OC(F)(F)O3)N1CCC(F)(F)[C@H](c2c[nH]c(=O)c(CN3CCC(F)(F)CC3)c2)C1 [WO2025064535, Compound 69]
37 | 2110 | C[C@@H](C(=O)Nc1nc2cc3c(cc2s1)OC(F)(F)O3)N1CCC(F)(F)[C@@H](c2c[nH]c(=O)c(CN)c2)C1 [WO2025064535, Compound 82]
38 | > 30000 | C[C@H](C(=O)Nc1nc2cc3c(cc2s1)OC(F)(F)O3)N1CCC(F)(F)[C@H](c2c[nH]c(=O)c(CN)c2)C1 [WO2025064535, Compound 83]
39 | 31 | C[C@@H](C(=O)Nc1nc2cc3c(cc2s1)OC(F)(F)O3)N1CCC(F)(F)[C@@H](c2ncn[nH]2)C1 [WO2025064535, Compound 104]
40 | 509 | C[C@@H](C(=O)Nc1nc2cc3c(cc2s1)OC(F)(F)O3)N1CCC(F)(F)[C@H](c2ncn[nH]2)C1 [WO2025064535, Compound 105]
